Values quoted from earlier work, collected in patent publication US6622729B1, “Selective photodynamic treatment” (priority 1999, dated 2003).

Details: SnET2 administered in 0.5 and 1 mg/kg doses

CCOC(=O)C1=Cc2c3nc(cc4nc(cc5[n-]c(cc6[n-]c2c(C)c6CC)c(C)c5CC)C(C)=C4CC)[C@@H](C)[C@]13CC.[Cl-].[Cl-].[Sn] (racemic) [SnET2, tin ethyl etiopurpurin]
systemic toxicity: no apparent systemic toxicity
